Results taken from US20260184675A1, “CHIRAL ISOMERIC SULFITE COMPOUND AND APPLICATION THEREOF” (Chengdu Hanova BioSciences Co., Ltd, priority 2024, published 2026).

Columns and labels:
[1] = test system: pest eggs of Tetranychus cinnabarinus; assay: Effect on hatching of pest eggs of Tetranychus cinnabarinus, leaf disc method; format: in vivo; conditions: for Hatching rate (%): 7 days after insecticide delivery
Method in brief: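 Adult female mites laid eggs on 2.0 cm Vicia faba leaf discs for up to 36 h; discs with counted eggs were dipped 10 s in compound solution or water, then kept moist. Hatched eggs were counted 7 days after treatment and control effect was calculated by formula.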

eggs of Thrips = assay: Effect on hatching of eggs of Thrips, leaf disc method; format: in vivo; conditions: 100 ppm, listed as 1-(R, S); for Hatching rate (%): 5 days after insecticide delivery
Method in brief: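 Egg-bearing Vicia faba leaf discs (diameter 2.0 cm, wetted filter paper beneath) were counted microscopically for baseline eggs. They were then soaked for 10 seconds in water or in test agent at 100 ppm. After moist incubation in lidded dishes, with controlled temperature and humidity and adequate indirect light, hatched larvae were counted five days post-delivery to judge hatching inhibition.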

[2] = test system: eggs of Tetranychus urticae; assay: Effect on hatching of eggs of Tetranychus urticae, leaf disc method; format: in vivo; conditions: 5 ppm, listed as 1-(R, S); for Hatching rate (%): 5 days after insecticide delivery
Method in brief: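 This leaf disc test measured inhibition of Tetranychus urticae egg hatching. Eggs laid on Vicia faba discs were counted microscopically, and the discs were soaked for 10 seconds in compound at 5 ppm, with clear water as control. They were incubated under controlled temperature and humidity with strong indirect light, avoiding condensate. Hatched eggs, leaf damage and developmental abnormalities were recorded five days after delivery.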

Magnaporthe grisea = format: cell-based; conditions: 100 ppm

C[C@H](COS(=O)OCCF)Oc1ccc(Cl)cc1Cl (stereo partly drawn) [1-(R,S)]
Hatching rate (%) ([1]; 0.25 mg/L, Replicate 1): 74.51% | Hatching rate (%) ([1]; 0.25 mg/L, Replicate 2): 76.47% | Number of hatched larvae 7 days after insecticide delivery ([1]; 0.25 mg/L, Replicate 1): 13 | Number of hatched larvae 7 days after insecticide delivery ([1]; 0.25 mg/L, Replicate 2): 14 | Hatching rate (%) ([1]; 0.5 mg/L, Replicate 1): 43.66% | Hatching rate (%) ([1]; 0.5 mg/L, Replicate 2): 48.98% | Number of hatched larvae 7 days after insecticide delivery ([1]; 0.5 mg/L, Replicate 1): 40 | Number of hatched larvae 7 days after insecticide delivery ([1]; 0.5 mg/L, Replicate 2): 25 | Hatching rate (%) ([1]; 1 mg/L, Replicate 1): 4.69% | Hatching rate (%) ([1]; 1 mg/L, Replicate 2): 6.67% | Number of hatched larvae 7 days after insecticide delivery ([1]; 1 mg/L, Replicate 1): 61 | Number of hatched larvae 7 days after insecticide delivery ([1]; 1 mg/L, Replicate 2): 42 | Hatching rate (%) (eggs of Thrips; Replicate 1): 9.57% | Hatching rate (%) (eggs of Thrips; Replicate 2): 9.02% | Hatching rate (%) (eggs of Thrips; Replicate 3): 7.95% | Number of hatched larvae 5 days after insecticide delivery (eggs of Thrips; Replicate 1): 9 | Number of hatched larvae 5 days after insecticide delivery (eggs of Thrips; Replicate 2): 12 | Number of hatched larvae 5 days after insecticide delivery (eggs of Thrips; Replicate 3): 7 | Hatching rate (%) ([2]; Replicate 1): 14.10% | Hatching rate (%) ([2]; Replicate 2): 12.70% | Number of hatched larvae 5 days after insecticide delivery ([2]; Replicate 1): 11 | Number of hatched larvae 5 days after insecticide delivery ([2]; Replicate 2): 88 | inhibitory rate against Magnaporthe grisea (in words) (Magnaporthe grisea): strong inhibitory rate | Average antifungal rate (%) (Magnaporthe grisea; 96-well plate, average of 3 replicates): 81.91% | Antifungal rate of Magnaporthe grisea (%), Replicate 1 (Magnaporthe grisea; 96-well plate, replicate 1): 75.86% | Antifungal rate of Magnaporthe grisea (%), Replicate 2 (Magnaporthe grisea; 96-well plate, replicate 2): 83.08% | Antifungal rate of Magnaporthe grisea (%), Replicate 3 (Magnaporthe grisea; 96-well plate, replicate 3): 86.80%
